The numbers were not newly measured in patent US20180273582A1, “SMALL MOLECULE AFFINITY MEMBRANE PURIFICATION SYSTEMS AND USES THEREOF” (UNIVERSITY OF NOTRE DAME, priority 2015, published 2018), which cites them from elsewhere.

What is called Kd is the constant that tells how readily two partners part at equilibrium.

The target in this data set is nucleotide binding site (NBS) of antibody. The note with it: antibody NBS region; from reference [43]; read-out: Kd (binding affinity to the conserved NBS region).

Regarding `O=C(O)CCCc1c[nH]c2ccccc12` [IBA, indole-3-butyric acid], the Kd was 1 to 8 µM.
